Where a name gives a salt, the structure may show the parent alone.
Assays:
perfused porcine eyes = conditions: IOVS 45, 2263, 2004; cited from earlier work
S1P3 = molecular target: T1, S1P3 (Homo sapiens, UniProt Q99500); test: FLIPR calcium assay, cells expressing S1P3 and a G-protein; type: cell-based; conditions: for EC50: fluo-4 calcium signal compared to sphingosine 1-phosphate, antagonist mode; for FLIPR (% Antagonism) S1P3: value in parentheses below the EC50, antagonism of sphingosine 1-phosphate signal
T1 construct: expressed in transfected cells
Description: (§1) Novel compounds having this general structure were synthesized and tested for sphingosine 1-phosphate receptor (S1P) activity using the FLIPR assay. Cells expressing the receptor of interest (S1P1, S1P2 or S1P3) and a G-protein (Gqi5 or G16) are loaded with fluo-4, a calcium sensitive dye. After removal of excess dye by washing, the cells are placed in the FLIPR TETRA instrument. Baseline fluorescence readings are taken prior to addition the compound to be tested. Agonists will trigger the receptor to interact with the G-protein, leading to an increase in intracellular calcium. The increase in intracellular calcium causes an increase in the fluorescence of the cells, due to the presence of fluo-4. This fluorescence increase is recorded by the FLIPR TETRA. After the calcium transient signal has decreased towards baseline, the standard agonist sphingosine 1-phosphate is added. If the test compound is an antagonist, an initial calcium signal will not be generated and the antagonist will prevent the generation of a calcium signal from sphingosine 1-phosphate. The level of fluorescence is compared to that of sphingosine 1-phosphate, and the EC50 or IC50 of the compound determined by curve fitting.

S1P2 = molecular target: T2, S1P2 (Homo sapiens, UniProt O95136); test: FLIPR calcium assay, cells expressing S1P2 and a G-protein; type: cell-based; conditions: fluo-4 calcium signal compared to sphingosine 1-phosphate
T2 construct: expressed in transfected cells
Description: as §1

S1P1 = molecular target: T3, S1P1 (Homo sapiens, UniProt P21453); test: FLIPR calcium assay, cells expressing S1P1 and a G-protein; type: cell-based; conditions: fluo-4 calcium signal compared to sphingosine 1-phosphate
T3 construct: expressed in transfected cells
Description: as §1

T3 sequence (P21453 whole entry, species assumed): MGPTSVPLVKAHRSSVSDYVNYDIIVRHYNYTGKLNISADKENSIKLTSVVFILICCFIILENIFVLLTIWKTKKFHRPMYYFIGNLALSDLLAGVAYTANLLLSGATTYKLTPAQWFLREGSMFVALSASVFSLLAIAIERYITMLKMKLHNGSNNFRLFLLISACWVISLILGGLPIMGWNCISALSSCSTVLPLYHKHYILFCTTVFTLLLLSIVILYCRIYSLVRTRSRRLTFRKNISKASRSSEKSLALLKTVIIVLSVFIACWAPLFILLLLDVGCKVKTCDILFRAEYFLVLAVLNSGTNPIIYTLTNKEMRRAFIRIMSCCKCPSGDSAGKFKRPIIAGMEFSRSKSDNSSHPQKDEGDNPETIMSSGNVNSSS
T1 sequence (Q99500 whole entry, species assumed): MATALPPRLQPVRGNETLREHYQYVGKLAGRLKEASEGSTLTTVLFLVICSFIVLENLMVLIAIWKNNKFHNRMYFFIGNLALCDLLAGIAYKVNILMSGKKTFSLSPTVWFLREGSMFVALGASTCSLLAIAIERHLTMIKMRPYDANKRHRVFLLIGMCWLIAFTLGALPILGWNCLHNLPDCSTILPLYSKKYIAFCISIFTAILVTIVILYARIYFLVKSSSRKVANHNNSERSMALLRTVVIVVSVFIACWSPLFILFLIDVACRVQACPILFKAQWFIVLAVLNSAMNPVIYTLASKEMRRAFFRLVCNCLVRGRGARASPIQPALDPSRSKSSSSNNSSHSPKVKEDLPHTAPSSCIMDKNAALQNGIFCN
T2 sequence (O95136 whole entry, species assumed): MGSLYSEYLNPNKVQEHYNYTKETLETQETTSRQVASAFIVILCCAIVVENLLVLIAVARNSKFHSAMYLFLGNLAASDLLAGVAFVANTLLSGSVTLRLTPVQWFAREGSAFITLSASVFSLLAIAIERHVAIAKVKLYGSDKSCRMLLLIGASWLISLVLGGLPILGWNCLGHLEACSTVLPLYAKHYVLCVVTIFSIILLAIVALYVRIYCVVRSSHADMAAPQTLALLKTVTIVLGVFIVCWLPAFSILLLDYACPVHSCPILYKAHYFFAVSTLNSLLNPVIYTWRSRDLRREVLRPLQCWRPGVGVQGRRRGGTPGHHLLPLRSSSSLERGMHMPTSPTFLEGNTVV

EC50 (S1P3) | FLIPR (% Antagonism) S1P3 (S1P3) | EC50 (S1P2) | EC50 (S1P1) | Compound | decrease of outflow facility (perfused porcine eyes)
– | – | – | – | CCCCCCCCCCCCC/C=C/[C@@H](O)[C@@H](N)COP(=O)(O)O [Example S1P, sphingosine 1-phosphate] | > 30%
310 nM | (101) % | > 8300 nM | > 8300 nM | O=C(Nc1ccc(I)cn1)C(Sc1ccccc1)c1ccccc1 (stereo not drawn) [Example 28, N-(5-iodopyridin-2-yl)-2-phenyl-2-(phenylthio)acetamide] | –
106 nM | (97) % | > 8300 nM | > 8300 nM | O=C(Nc1ccc(Cl)cn1)C(Sc1ccc(Cl)c(Cl)c1)c1ccccc1 (stereo not drawn) [Example 19, N-(5-chloropyridin-2-yl)-2-(3,4-dichlorophenylthio)-2-phenylacetamide] | –
103 nM | (97) % | > 8300 nM | > 8300 nM | Cl.O=C(Nc1ccc(Cl)cn1)C(Oc1ccc(Br)cc1)c1ccc(Cl)cc1 (stereo not drawn) [Example 6, 2-(4-bromophenoxy)-2-(4-chlorophenyl)-N-(5-chloropyridin-2-yl)acetamide hydrochloride] | –
15 nM | (97) % | > 8300 nM | > 8300 nM | Cl.O=C(Nc1ccc(Br)cn1)C(Oc1ccc(Cl)cc1)c1ccc(Cl)cc1 (stereo not drawn) [Example 8, N-(5-bromopyridin-2-yl)-2-(4-chlorophenoxy)-2-(4-chlorophenyl)acetamide hydrochloride] | –
725 nM | (99) % | > 8300 nM | > 8300 nM | Cc1ccc(NC(=O)C(Cc2ccccc2)c2ccccc2)nc1 (stereo not drawn) [Example 32, N-(5-methylpyridin-2-yl)-2,3-diphenylpropanamide hydrochloride] | –

Reference: patent US20120088800A1, “2-(SUBSTITUTED) (ARYLMETHYL, ARYLOXY and ARYLTHIO))-N-(SUBSTITUTED PYRIDIN-2-YL)-2-(SUBSTITUTED ARYL) COMPOUNDS AS SUBTYPE-SELECTIVE MODULATORS OF SPHINGOSINE-1-PHOSPHATE-3 (S1P3) RECEPTORS” (ALLERGAN, INC., priority 2009, published 2012)
